Consider 18 compounds from patent US6326023A, “Synergistic anti-malarial formulation” (priority 2000, dated 2001).

Data set [1] has as its system P. yoelii nigeriensis (MDR II). In words: Resistance pattern of P. yoelii nigeriensis (MDR II) strain to antimalarials/antibiotics (oral) in Swiss mice. Type of data set: in vivo. On the procedure:
Swiss mice weighing 20±1 to 25±g of either sex and random laboratory bred at Central Drug Research Institute, Lucknow were used. Mice were routinely infected with 1×10^5 parasitized RBC intraperitoneally using sterile citrate saline as diluent for infected blood. […] From day 4 onwards, tail blood smears were examined after Giemsa staining and percent parasitaemia and mortality was recorded. The parasite (MDR strain) was lethal for Swiss mice and mice died in 6-8 days after developing parasitaemia above 40% to 100% infection of RBC, Mortality was 100% in mice.

The conditions of data set [2]: im; cited from earlier work.
Data set [3] has as its system P. falciparum. The conditions noted are these: rectal suppository, in 48-56 h; cited from earlier work.
The conditions of data set [4]: human, in vivo; cited from earlier work.

In general, LD50 refers to the dose expected to kill half of the subjects tested.

Regarding `CN(C)C1C(=O)C(C(N)=O)=C(O)C2(O)C(=O)C3=C(O)c4c(O)cccc4C(C)(O)C3C(O)C12` (stereo not shown) [Oxytetracycline], the Parasite response result in data set [1] (500 mg/kg × 4 days) is on record as “Resistant”.

For the compound `C[C@H]1[C@H](OC(=O)CCC(=O)O)O[C@@H]2O[C@@]3(C)CC[C@H]4[C@H](C)CC[C@@H]1[C@@]24OO3` [artesunate], the LD50 in data set [2] was 475 mg/kg.

As to `C[C@@H]1CC[C@H]2[C@@H](C)C(=O)O[C@@H]3O[C@@]4(C)CC[C@@H]1[C@]32OO4` [artemisinin], the “Dose needed for complete parasite clearance” value in data set [3] is on record as 2800 mg.

As for `COc1cc(C)c2c(Oc3cccc(C(F)(F)F)c3)c(OC)cc(NC(C)CCCN)c2n1` (stereo not shown) [WR238605], the Parasite response result in data set [1] (10 mg/kg × 7 days) was “Resistant”. `C=C[C@H]1C[N@@]2CC[C@H]1C[C@H]2[C@H](O)c1ccnc2ccc(OC)cc12` [Quinine]: in data set [1] (400 mg/kg × 4 days), the Parasite response result is “Resistant”. With `CCN(CC)CCCC(C)Nc1c2ccc(Cl)cc2nc2ccc(OC)cc12` (stereo not shown) [Mepacrine], in data set [1] (128 mg/kg × 4 days), the Parasite response result is on record as “Resistant”. Regarding `CCc1nc(N)nc(N)c1-c1ccc(Cl)cc1` [Pyrimethamine], the Parasite response result in data set [1] (16 mg/kg × 4 days) is given as “Resistant”. Take `OC(c1cc(C(F)(F)F)nc2c(C(F)(F)F)cccc12)C1CCCCN1` (stereo not shown) [Mefloquine]: the Parasite response entry in data set [1] (128 mg/kg × 4 days) is reported as “Resistant”.

Consider `C=C[C@H]1C[N@@]2CC[C@H]1C[C@@H]2[C@@H](O)c1ccnc2ccc(OC)cc12` [Quinidine], for which the Parasite response entry in data set [1] (400 mg/kg × 4 days) is given as “Resistant”. With `CN(C)C1C(=O)C(C(N)=O)=C(O)C2(O)C(=O)C3=C(O)c4c(O)cccc4C(C)(O)C3CC12` (stereo not shown) [Tetracycline], the Parasite response entry in data set [1] (500 mg/kg × 4 days) was “Resistant”. With `O=C(O)c1cn(C2CC2)c2cc(N3CCNCC3)c(F)cc2c1=O` [Ciprofloxacine], in data set [1] (50 mg/kg × 4 days), the Parasite response result is reported as “Resistant”. `CCn1cc(C(=O)O)c(=O)c2cc(F)c(N3CCNCC3)cc21` [Norfloxacine]: the Parasite response entry in data set [1] (50 mg/kg × 4 days) was “Resistant”.

For `CC[C@H]1OC(=O)[C@H](C)[C@@H](O[C@H]2C[C@@](C)(OC)[C@@H](O)[C@H](C)O2)[C@H](C)[C@@H](O[C@@H]2O[C@H](C)C[C@H](N(C)C)[C@H]2O)[C@](C)(O)C[C@@H](C)C(=O)[C@H](C)[C@@H](O)[C@]1(C)O` [Erythromycin], the Parasite response result in data set [1] (250 mg/kg × 4 days) was “Resistant”.

In the case of `CN(C)[C@@H]1C(O)=C(C(N)=O)C(=O)[C@@]2(O)C(O)=C3C(=O)c4c(O)ccc(Cl)c4[C@@H](O)[C@H]3C[C@@H]12` [Demeclocycline], in data set [1] (500 mg/kg × 4 days), the Parasite response result is listed as “Resistant”. As for `CCCCN(CCCC)CCC(O)c1cc2c(Cl)cc(Cl)cc2c2cc(C(F)(F)F)ccc12` (stereo not shown) [Halofantrine], in data set [1] (32 mg/kg × 4 days), the Parasite response result was “Resistant”. Further, the Cardiotoxicity result in data set [4] is “increased risk of cardiotoxicity”. Turning to `C[C@H]1c2cccc(O)c2C(=O)C2=C(O)[C@]3(O)C(=O)C(C(N)=O)=C(O)[C@@H](N(C)C)[C@@H]3[C@@H](O)[C@@H]21` [Doxycycline], in data set [1] (25 mg/kg × 4 days), the Parasite response result is “Resistant”.

On to `CCN(CC)CCCC(C)Nc1ccnc2cc(Cl)ccc12` (stereo not shown) [Chloroquine], for which the Parasite response entry in data set [1] (128 mg/kg × 4 days) is “Resistant”. Same read-out and setting: for `CCN(CC)Cc1cc(Nc2ccnc3cc(Cl)ccc23)ccc1O` [Amodiaquine] the value was “Resistant”.
